Source: patent publication US20220168430A1, “THERAPEUTIC METHODS FOR TREATING HEPATITIS B” (priority 2019, published 2022)
Values joined by “and” are separate entries in the source; they are usually repeats but may differ in a detail not shown here. Equal values may be shown once.

What was measured:
HBV DNA [1] = assay: HBV DNA by branched DNA assay in HepG2.2.15 cells, two-compound combinations (Examples 13-14); format: cell-based, HBV; HepG2.2.15 (human hepatoblastoma); conditions: for MacSynergy Volume Calculations, 99.99% confidence interval (Bonferroni Adj. 96%) / Average percent inhibition versus negative control: Cmpd 2 μM: 0.01, 0.0032, 0.001, 0.0003, 0.0001, 0; for Average percent inhibition versus negative control: n = 4; for Additive percent inhibition versus negative control: Compound (2) μM: 0.01, 0.0032, 0.001, 0.0003, 0.0001, 0
Procedure: In vitro combination studies were conducted using the method of Prichard and Shipman (Prichard M N, and Shipman C Jr., Antiviral Research, 1990, 14(4-5), 181-205; and Prichard M N, et. al., MacSynergy II). The HepG2.2.15 cell culture system is a cell line derived from human hepatoblastoma HepG2 cells, which have been stably transfected with the adw2-subtype HBV genome as previously explained in Sells et al. (Proc. Natl. Acad. Sci. U. S. A, 1987. Vol 84:1005-1009). HepG2.2.15 cells secrete Dane-like viral particles, produce HBV DNA, and produce the viral proteins, HBeAg and HBsAg.
Although inhibition of HBV DNA, RNA and proteins can be determined in the presence of these inhibitors, we used the branched DNA assay due to its ability to quantitatively measure the level HBV DNA.
Detection of HBV DNA. The branched DNA assay (bDNA) was used to determine the effect of compound combinations on HBV DNA. HepG2.2.15 (10,000 cells/well) were cultured in DMEM medium plus supplements as described above. The next day, the cells were replenished with fresh medium followed by the addition of Inhibitor A and B, both were dissolved in 100% DMSO. The microtiter cell plates were incubated for a total duration of 6 days at 37° C. without replenishing media or compound. The serial dilutions spanned concentration ranges respective to the EC50 value of each compound. In addition to combination testing of the compounds, both inhibitors A and B were also tested singly.
The level of bDNA present in the inhibitor-treated supernatant wells was measured using a Quantigene 2.0 bDNA assay kit (Affymetrix, Santa Clara, Calif.) with HBV specific custom probe set (genotype D ayw; DF-10739) and manufacturer's instructions after performing a proteinase K digestion in lysis. The plates were read using a Victor luminescence plate reader (PerkinElmer Model 1420 Multilabel counter) and the RLU data generated from each well was calculated as inhibition of the untreated control wells. The data was analyzed using the interpretive guidelines established by Prichard and Shipman combination model using the MacSynergy II program (Prichard M N, Shipman C Jr. Antiviral Research, 1990. Vol 14(4-5):181-205; Prichard M N, Aseltine KR, and Shipman, C. MacSynergy II. University of Michigan 1992) to determine whether the combinations were synergistic, additive or antagonistic using the interpretive guidelines established by Prichard and Shipman as follows: synergy volumes <25 μM2% (log volume <2) at 95% CI=probably insignificant; 25-50 (log volume >2 and <5)=minor but significant 50-100 (log volume >5 and <9)=moderate, may be important in vivo; Over 100 (log volume >9)=strong synergy, probably important in vivo; volumes approaching 1000 (log volume >90)=unusually high, check data. The RLU data from the single compound treated cells were analyzed using XL-Fit module in Microsoft Excel to determine EC50 values using a 4-parameter curve fitting algorithm.

HBsAg = HBsAg in culture supernatants of HBV-infected PHH by ELISA (Examples 15-17); conditions: for AVERAGE % INHIBITION: HBsAg
Procedure: All the test articles were further diluted 100 times with the culture medium. The final concentration of DMSO in the culture medium was 2%.
HBsAg in the culture supernatants harvested on days 8 was measured using the HBsAg/ELISA kit (Autobio) according to the manual. The samples were diluted 4-fold with PBS to get the signal in the range of the standard curve. Percent inhibition of HBsAg was calculated with the following formula:
% Inh. HBsAg=[1−HBsAg quantity of sample/HBV quantity of DMSO control]×100

HBV DNA [2] = assay: HBV DNA in culture supernatants of HBV-infected PHH by qPCR (Examples 15-17); format: cell-based, HBV genotype D; primary human hepatocytes; conditions: HBV DNA
Procedure: The day PHH seeding date was defined as day 0.
The PHH were infected with 400 HBV GE/cell of D type HBV on day 1.
The test articles were further diluted with the culture medium to the final test concentrations.
All the test articles were further diluted 100 times with the culture medium. The final concentration of DMSO in the culture medium was […].
Four two-way combinations were performed on a 5×5 matrix, in triplicate plates. Transfection reagent was present in all wells.
DNA in the culture supernatants harvested on days 8 was isolated with QIAamp 96 DNA Blood Kit (Qiagen-51162). For each sample, 100 μl of each culture supernatant was used to extract DNA. The DNA was eluted with 180 μl of AE. HBV DNA in the culture supernatants was quantified by quatitative PCR using well-established and commonly used procedures. Percent inhibition of HBV DNA was calculated with the formula below:
% Inh. HBV DNA=[1−value of sample/AVG. value of Medium control]×100.
Results of double combination studies were analyzed using MacSynergy II software (Prichard and Shipman, 1992).

HBV DNA [3] = assay: as above; format: cell-based, HBV genotype D; primary human hepatocytes; conditions: Hepatitis B virus, determined in an earlier separate experiment

With `CC(C)OC(=O)[C@H](C)N[P@](=O)(CO[C@H](C)Cn1cnc2c(N)ncnc21)Oc1ccccc1` [TAF, tenofovir alafenamide] the EC50 (HBV DNA [1]; Hepatitis B virus, HepG2.2.15, read-out: Inhibitor A EC50) was 0.054 µM, the “MacSynergy Volume Calculations, 99.99% confidence interval (Bonferroni Adj. 96%)” value (HBV DNA [1]; TAF 0.0002 μM) was 0 and the “Average percent inhibition versus negative control” value (HBV DNA [1]; TAF 0.0002 μM) was 8.88%. The “Additive percent inhibition versus negative control” value (HBV DNA [1]; TAF 0.0002 μM) was 8.88%, the “MacSynergy Volume Calculations, 99.99% confidence interval (Bonferroni Adj. 96%)” value (HBV DNA [1]; TAF 0.0006 μM) was 0 and the “Average percent inhibition versus negative control” value (HBV DNA [1]; TAF 0.0006 μM) was 12.91%. The “Additive percent inhibition versus negative control” value (HBV DNA [1]; TAF 0.0006 μM) was 12.91%, the “MacSynergy Volume Calculations, 99.99% confidence interval (Bonferroni Adj. 96%)” value (HBV DNA [1]; TAF 0.0020 μM) was 0 and the “Average percent inhibition versus negative control” value (HBV DNA [1]; TAF 0.0020 μM) was 14.28%. For the same compound, the “Additive percent inhibition versus negative control” value (HBV DNA [1]; TAF 0.0020 μM) was 14.28%, the “MacSynergy Volume Calculations, 99.99% confidence interval (Bonferroni Adj. 96%)” value (HBV DNA [1]; TAF 0.0064 μM) was 0 and the “Average percent inhibition versus negative control” value (HBV DNA [1]; TAF 0.0064 μM) was 19.87%. For the same compound, the “Additive percent inhibition versus negative control” value (HBV DNA [1]; TAF 0.0064 μM) was 19.87%, the “MacSynergy Volume Calculations, 99.99% confidence interval (Bonferroni Adj. 96%)” value (HBV DNA [1]; TAF 0.0201 μM) was 0 and the “Average percent inhibition versus negative control” value (HBV DNA [1]; TAF 0.0201 μM) was 25.36%. The “Additive percent inhibition versus negative control” value (HBV DNA [1]; TAF 0.0201 μM) was 25.36%, the “MacSynergy Volume Calculations, 99.99% confidence interval (Bonferroni Adj. 96%)” value (HBV DNA [1]; TAF 0.0634 μM) was 0 and the “Average percent inhibition versus negative control” value (HBV DNA [1]; TAF 0.0634 μM) was 42.96%. For the same compound, the “Additive percent inhibition versus negative control” value (HBV DNA [1]; TAF 0.0634 μM) was 42.96%, the “MacSynergy Volume Calculations, 99.99% confidence interval (Bonferroni Adj. 96%)” value (HBV DNA [1]; TAF 0.2002 μM) was 0 and the “Average percent inhibition versus negative control” value (HBV DNA [1]; TAF 0.2002 μM) was 62.7%. For the same compound, the “Additive percent inhibition versus negative control” value (HBV DNA [1]; TAF 0.2002 μM) was 62.7%, the “MacSynergy Volume Calculations, 99.99% confidence interval (Bonferroni Adj. 96%)” value (HBV DNA [1]; TAF 0.6329 μM) was 0 and the “Average percent inhibition versus negative control” value (HBV DNA [1]; TAF 0.6329 μM) was 76.45%. The “Additive percent inhibition versus negative control” value (HBV DNA [1]; TAF 0.6329 μM) was 76.45%, the “MacSynergy Volume Calculations, 99.99% confidence interval (Bonferroni Adj. 96%)” value (HBV DNA [1]; TAF 2.0 μM) was 0 and the “Average percent inhibition versus negative control” value (HBV DNA [1]; TAF 2.0 μM) was 87.21%. The “Additive percent inhibition versus negative control” value (HBV DNA [1]; TAF 2.0 μM) was 87.21%.

In the case of `CC(C)OC(=O)OCOP(=O)(CO[C@H](C)Cn1cnc2c(N)ncnc21)OCOC(=O)OC(C)C.O=C(O)/C=C/C(=O)O` [TDF, tenofovir disoproxil fumarate, reference compound], the “AVERAGE % INHIBITION” value (HBsAg; TDF 0.12 nM alone) is reported as −1.47% and −10.84%, the “AVERAGE % INHIBITION” value (HBsAg; TDF 0.37 nM alone) is reported as −1.3% and −9.3% and the EC50 (HBsAg; Hepatitis B virus) is reported as greater than 0.01 µM. The “AVERAGE % INHIBITION” value (HBV DNA [2]; TDF 0.12 nM alone) was 22.22%, the “AVERAGE % INHIBITION” value (HBV DNA [2]; TDF 10.0 nM alone) was 92.76% and the inhibition at 0.00012 µM (HBV DNA [2]; Hepatitis B virus, TDF 0.12 nM alone) was 36.1%. It also gave an inhibition at 0.00037 µM (HBV DNA [2]; Hepatitis B virus, TDF 0.37 nM alone) of 44.6%, an inhibition at 0.01 µM (HBV DNA [2]; Hepatitis B virus, TDF 10.0 nM alone) of 92.5% and an EC50 (HBV DNA [3]) of 0.00042 µM.
